Our source for the GI50 and TGI values is PubChem BioAssay (NCI).

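Compound exposure: 48 hours, 5 concentrations, 96-well plates. The concentration for 50% growth inhibition is given as GI50. TGI denotes the concentration required for complete inhibition of growth.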

Test systems include NCI/ADR-RES ovarian; BT-549 breast; KM12 colon; HCT-15 colon; UO-31 renal; OVCAR-5 ovarian; UACC-257 melanoma; M14 melanoma.
What all share (assay): NCI-60 cell line screen, 48 h

For the molecule `CN(/N=N/c1nc(OCc2ccccc2)c2[nH]cnc2n1)C(=O)N(C)/N=N/c1nc(OCc2ccccc2)c2[nH]cnc2n1`, the GI50 in the experiment on NCI/ADR-RES ovarian was 47.2 µM; with BT-549 breast, 36.6 µM; in the experiment with KM12 colon, 84.2 µM; in the experiment on HCT-15 colon, 35.4 µM; with UO-31 renal, 36.1 µM; in the experiment on OVCAR-5 ovarian, 63.7 µM. The figures for the GI50 with UACC-257 melanoma and with M14 melanoma were 54.7 µM and 71.2 µM, respectively. The TGI in the experiment with NCI/ADR-RES ovarian, in the experiment with BT-549 breast, with KM12 colon, in the experiment with HCT-15 colon, in the experiment on UO-31 renal and in the experiment with OVCAR-5 ovarian was greater than 100 µM each time. In addition, the TGI in the experiment with UACC-257 melanoma and in the experiment with M14 melanoma was greater than 100 µM in each case.

On to `COc1cc(-c2cn(-c3ccc(Cl)cc3)c(=O)[nH]2)cc(OC)c1OC`, for which the GI50 in the experiment on NCI/ADR-RES ovarian, in the experiment on BT-549 breast, with KM12 colon, with HCT-15 colon, with UO-31 renal and in the experiment with OVCAR-5 ovarian was greater than 100 µM in each case. Also, the GI50 with UACC-257 melanoma and with M14 melanoma was greater than 100 µM in each case. The TGI with NCI/ADR-RES ovarian, in the experiment on BT-549 breast, with KM12 colon, in the experiment on HCT-15 colon, in the experiment with UO-31 renal and in the experiment with OVCAR-5 ovarian was greater than 100 µM throughout. The TGI with UACC-257 melanoma and in the experiment with M14 melanoma was greater than 100 µM in each case.

For `O=C(N/N=C/c1ccc(O)cc1O)c1ccc(Nc2ccnc(C(F)(F)F)c2)cc1`, the GI50 is greater than 100 µM in the experiment on NCI/ADR-RES ovarian; 22.2 µM in the experiment with BT-549 breast; greater than 100 µM in the experiment with KM12 colon; greater than 100 µM in the experiment on HCT-15 colon; greater than 24.3 µM in the experiment with UO-31 renal; greater than 100 µM in the experiment on OVCAR-5 ovarian. The GI50 with UACC-257 melanoma and in the experiment on M14 melanoma was greater than 100 µM throughout. In addition, the TGI in the experiment with NCI/ADR-RES ovarian is greater than 100 µM; in the experiment with BT-549 breast, 79.9 µM; in the experiment with KM12 colon it was greater than 100 µM; with HCT-15 colon it was greater than 100 µM; in the experiment with UO-31 renal it was greater than 100 µM; in the experiment with OVCAR-5 ovarian, greater than 100 µM. The TGI with UACC-257 melanoma and in the experiment on M14 melanoma was greater than 100 µM each time.

Regarding `O=C(CNC(=O)c1cccc2ccccc12)Nc1ccccc1Oc1ccccc1`, the GI50 with NCI/ADR-RES ovarian was 0.239 µM; with BT-549 breast, 0.41 µM; with KM12 colon, 0.289 µM; in the experiment on HCT-15 colon, 0.245 µM; with UO-31 renal, 0.643 µM; in the experiment on OVCAR-5 ovarian, 0.521 µM. Besides, in the experiment with M14 melanoma, the GI50 is 0.278 µM. Further, the TGI in the experiment on NCI/ADR-RES ovarian was greater than 10 µM; in the experiment with BT-549 breast it was 5.43 µM; in the experiment with KM12 colon, greater than 10 µM; in the experiment with HCT-15 colon, greater than 10 µM; in the experiment on UO-31 renal, greater than 10 µM; in the experiment with OVCAR-5 ovarian, greater than 10 µM. Besides, the TGI with M14 melanoma is greater than 10 µM.

On to `Cc1cc(N/N=C/c2nc(-c3ccccc3)oc2C)c2cc(Cl)ccc2n1`, for which the GI50 in the experiment on NCI/ADR-RES ovarian is 1.84 µM; with BT-549 breast it was 14.9 µM; in the experiment on HCT-15 colon, 1.68 µM; in the experiment with UO-31 renal, 1.61 µM; in the experiment on OVCAR-5 ovarian, 1.62 µM; in the experiment with UACC-257 melanoma, 2.01 µM. Moreover, the GI50 with M14 melanoma was 1.83 µM. The TGI in the experiment with NCI/ADR-RES ovarian is 3.95 µM; with BT-549 breast it was 29.3 µM; in the experiment on HCT-15 colon it was 3.37 µM; in the experiment on UO-31 renal, 3.07 µM; in the experiment with OVCAR-5 ovarian, 3.12 µM; with UACC-257 melanoma it was 4.9 µM. This molecule returned a TGI in the experiment with M14 melanoma of 3.54 µM.

As to `N#CC(C#N)=CN1CCN(C(=O)c2ccccc2)C1=S`, the GI50 with NCI/ADR-RES ovarian was greater than 100 µM; in the experiment on BT-549 breast, 22.8 µM; in the experiment with KM12 colon, 32.3 µM; with HCT-15 colon it was 36.4 µM; in the experiment with UO-31 renal, 20.4 µM; with UACC-257 melanoma it was 25.3 µM. Also, the GI50 in the experiment with M14 melanoma was 37.3 µM. In addition, the TGI was greater than 100 µM in the experiment on NCI/ADR-RES ovarian; 53 µM in the experiment with BT-549 breast; 86.7 µM in the experiment with KM12 colon; greater than 100 µM with HCT-15 colon; 47.3 µM with UO-31 renal; 81.9 µM with UACC-257 melanoma. Moreover, in the experiment on M14 melanoma, the TGI was greater than 100 µM.

For the molecule `CCOC(=O)C#Cc1ccc(C#CC(=O)OCC)cc1`, the TGI with NCI/ADR-RES ovarian was 15.3 µM; with BT-549 breast it was greater than 21.7 µM; in the experiment on KM12 colon, greater than 21.2 µM; with HCT-15 colon it was greater than 20.2 µM; in the experiment with OVCAR-5 ovarian it was greater than 21.8 µM; with UACC-257 melanoma it was greater than 56.4 µM. Moreover, the TGI with M14 melanoma is greater than 20.7 µM.

`Cc1c(Cl)cccc1NC(=O)c1sc2nc3c(cc2c1N)CCCCCC3`: the GI50 in the experiment with NCI/ADR-RES ovarian is 0.164 µM; with BT-549 breast it was 0.439 µM; in the experiment with KM12 colon, 0.197 µM; in the experiment with HCT-15 colon it was 0.156 µM; in the experiment with UO-31 renal it was 1.51 µM; in the experiment on OVCAR-5 ovarian, 0.791 µM. In addition, the GI50 in the experiment with M14 melanoma is 0.154 µM. Also, the TGI was 15.7 µM in the experiment with NCI/ADR-RES ovarian; 23.4 µM in the experiment on BT-549 breast; greater than 50 µM in the experiment on KM12 colon; greater than 50 µM in the experiment with HCT-15 colon; greater than 50 µM in the experiment with UO-31 renal; greater than 50 µM with OVCAR-5 ovarian. Besides, in the experiment on M14 melanoma, the TGI is greater than 50 µM.

For the molecule `Cc1nc(NC(=S)Nc2ccc(F)cc2)sc1C(=O)NNC(=S)Nc1ccc(F)cc1`, the GI50 is 3.62 µM in the experiment with NCI/ADR-RES ovarian; 14.9 µM with BT-549 breast; 3.11 µM in the experiment on KM12 colon; 5.28 µM in the experiment with UO-31 renal; 16.2 µM with OVCAR-5 ovarian; 10.1 µM with UACC-257 melanoma. Besides, the GI50 with M14 melanoma is 20.2 µM. Moreover, the TGI in the experiment with NCI/ADR-RES ovarian stood at 18.2 µM; in the experiment with BT-549 breast, 45.2 µM; in the experiment on KM12 colon it was 13.4 µM; in the experiment with UO-31 renal it was 21 µM; with OVCAR-5 ovarian, 62.1 µM; with UACC-257 melanoma, 36.8 µM. Besides, the TGI with M14 melanoma was greater than 100 µM.

Take `CN(C)CCNC(=O)c1cc([N+](=O)[O-])ccn1`: the TGI in the experiment on BT-549 breast is greater than 100 µM; in the experiment on KM12 colon it was greater than 100 µM; in the experiment on HCT-15 colon, 41 µM; in the experiment with UO-31 renal, greater than 100 µM; in the experiment with OVCAR-5 ovarian it was greater than 100 µM; with UACC-257 melanoma, 29.8 µM. The TGI in the experiment with M14 melanoma is greater than 100 µM.

As to `Cc1nc(Nc2ccc(F)c(Cl)c2)sc1C(=O)O`, the GI50 was 1.78 µM with NCI/ADR-RES ovarian; 1.7 µM with BT-549 breast; 1.16 µM with UO-31 renal; 1.7 µM in the experiment with OVCAR-5 ovarian; 1.78 µM with UACC-257 melanoma; 1.73 µM with M14 melanoma. The TGI in the experiment with NCI/ADR-RES ovarian worked out at 4.7 µM; with BT-549 breast, 4.28 µM; in the experiment with UO-31 renal, 2.82 µM; with OVCAR-5 ovarian, 4.1 µM; in the experiment on UACC-257 melanoma, 3.36 µM; with M14 melanoma it was 3.66 µM.

Regarding `Cl.Fc1c[c-]c(-c2ccccn2)c(F)c1.[Pt].c1ccc([PH+](CC[PH+](c2ccccc2)c2ccccc2)c2ccccc2)cc1`, the GI50 is 1.01 µM in the experiment with NCI/ADR-RES ovarian; 0.0867 µM in the experiment on BT-549 breast; 0.0772 µM in the experiment on KM12 colon; 0.254 µM with UO-31 renal; 0.178 µM with OVCAR-5 ovarian; 0.165 µM with UACC-257 melanoma. Further, the GI50 with M14 melanoma was 0.0741 µM. The TGI in the experiment on NCI/ADR-RES ovarian turned out to be 4.18 µM; in the experiment with BT-549 breast it was 0.978 µM; in the experiment with KM12 colon, 0.277 µM; in the experiment with UO-31 renal, 0.93 µM; in the experiment on OVCAR-5 ovarian, 0.919 µM; with UACC-257 melanoma, 0.975 µM. This molecule yielded a TGI in the experiment on M14 melanoma of 1.22 µM.

For `Cc1nn2c(/C=C3/C(=O)Nc4ccccc43)c(-c3ccc(Cl)cc3)nc2s1`, the GI50 in the experiment with BT-549 breast was 10.7 µM; with KM12 colon, 16.5 µM; with HCT-15 colon, 15.3 µM; in the experiment on UO-31 renal, greater than 50 µM; in the experiment with UACC-257 melanoma it was 37.3 µM; with M14 melanoma, 11.5 µM. In addition, the TGI is greater than 50 µM in the experiment on BT-549 breast; greater than 50 µM with KM12 colon; greater than 50 µM in the experiment on HCT-15 colon; greater than 50 µM with UO-31 renal; greater than 50 µM in the experiment with UACC-257 melanoma; 36.4 µM in the experiment with M14 melanoma.

With `COc1ccc(/C=C(\C#N)c2cc(OC)c3c(c2)OCO3)cc1`, the GI50 with NCI/ADR-RES ovarian is less than 0.01 µM; in the experiment on BT-549 breast, 0.0657 µM; in the experiment on KM12 colon, less than 0.01 µM; with HCT-15 colon, 0.0118 µM; with UO-31 renal it was 0.251 µM; with OVCAR-5 ovarian, 0.0797 µM. The GI50 in the experiment on UACC-257 melanoma was 17 µM. Besides, the TGI with NCI/ADR-RES ovarian is 0.58 µM; in the experiment on BT-549 breast, 83.2 µM; with KM12 colon, 1.66 µM; with HCT-15 colon, greater than 73.6 µM; with UO-31 renal, greater than 55.8 µM; in the experiment on OVCAR-5 ovarian it was 80.9 µM. The molecule further showed a TGI in the experiment on UACC-257 melanoma of 57 µM.

Regarding `Cc1nn2c(/C=C3/C(=O)Nc4ccc(Cl)cc43)c(-c3ccccc3)nc2s1`, the GI50 with BT-549 breast was 3.11 µM; in the experiment on KM12 colon, 2.11 µM; in the experiment on HCT-15 colon it was 4.65 µM; in the experiment with UO-31 renal it was 1.07 µM; in the experiment on OVCAR-5 ovarian it was 8.38 µM; in the experiment on UACC-257 melanoma, 3.11 µM. Also, in the experiment on M14 melanoma, the GI50 was 6.33 µM. The TGI in the experiment with BT-549 breast amounted to 14.3 µM; in the experiment on KM12 colon, 5.88 µM; in the experiment on HCT-15 colon, 31.9 µM; in the experiment with UO-31 renal it was 13.2 µM; in the experiment with OVCAR-5 ovarian, 25.9 µM; in the experiment on UACC-257 melanoma, 11.1 µM. Moreover, in the experiment on M14 melanoma, the TGI is 21.5 µM.
